Experiments:
[1] = test system: Plasmodium falciparum; assay: Antiplasmodial activity against atovaquone-resistant Plasmodium falciparum FCR3; assay type: functional, organism-based
[2] = test system: Plasmodium falciparum; assay: Antiplasmodial activity against chloroquine-resistant Plasmodium falciparum W2 synchronized ring stage parasites infected in erythrocytes assessed as reduction in parasitemia after 48 hrs by Giemsa staining; assay type: functional, organism-based; conditions: W2, 48 h
[3] = Inhibition of Plasmodium falciparum recombinant falcipain-2 incubated for 30 mins at room temperature before addition of substrate benzoxycarbonyl-Leu-Arg-7-amino-4-methyl-coumarin by spectrofluorometry
[4] = test system: Plasmodium falciparum; assay: Antiplasmodial activity against chloroquine and pyrimethamine-resistant Plasmodium falciparum V1/S; assay type: functional, organism-based
[5] = test system: Plasmodium falciparum; assay: Antiplasmodial activity against chloroquine-sensitive and mefloquine-resistant Plasmodium falciparum D6; assay type: functional, organism-based
[6] = test system: Plasmodium falciparum; assay: Antiplasmodial activity against chloroquine-sensitive Plasmodium falciparum 3D7; assay type: functional, organism-based
[7] = Inhibition of Plasmodium chabaudi recombinant chabaupain expressed in Escherichia coli
[8] = test system: Plasmodium falciparum; assay: Antiplasmodial activity against Plasmodium falciparum Itg2 synchronized ring stage parasites infected in erythrocytes assessed as reduction in parasitemia after 48 hrs by Giemsa staining; assay type: functional, organism-based; conditions: Itg2, 48 h
[9] = Inhibition of falcipain-2 in Plasmodium falciparum trophozoite extracts incubated for 30 mins at room temperature before addition of substrate benzyloxycarbonyl-Phe-Arg-7-amino-4-methyl-coumarin by spectrofluorometry

SMILES | IC50 [1] [nM] | IC50 [2] [nM] | IC50 [3] [nM] | IC50 [4] [nM] | IC50 [5] [nM] | IC50 [6] [nM] | IC50 [7] [nM] | IC50 [8] [nM] | IC50 [9] [nM]
C[C@H]1[C@@H](OCc2ccc(C(=O)NCC(=O)N[C@H](/C=C/S(=O)(=O)c3ccccc3)Cc3ccccc3)cc2)O[C@@H]2O[C@@]3(C)CC[C@H]4[C@H](C)CC[C@@H]1[C@@]24OO3 | 1.75 | 4.09 | 16500 | 1.59 | 4.71 | 3.11 | 56800 |  | 
CC(C)C[C@H](NC(=O)OC(C)(C)C)C(=O)N[C@H](/C=C/S(=O)(=O)c1ccccc1)CCc1ccccc1 |  | > 10000 | 210 |  |  |  |  |  | 
CC(C)C[C@H](NC(=O)c1ccc(CO[C@H]2O[C@@H]3O[C@@]4(C)CC[C@H]5[C@H](C)CC[C@@H]([C@H]2C)[C@@]35OO4)cc1)C(=O)N[C@H](/C=C/S(C)(=O)=O)CCc1ccccc1 | 1.89 | 4.21 | 350 | 1.65 | 4.96 | 2.48 |  |  | 
CC(C)C[C@H](NC(=O)c1ccc(CO[C@H]2O[C@@H]3O[C@@]4(C)CC[C@H]5[C@H](C)CC[C@@H]([C@H]2C)[C@@]35OO4)cc1)C(=O)N[C@H](/C=C/S(=O)(=O)c1ccccc1)CCc1ccccc1 |  | 2.08 | 4950 |  |  |  | 2290 |  | 
C[C@H]1[C@@H](OCc2ccc(C(=O)N[C@@H](Cc3ccccc3)C(=O)N[C@H](/C=C/S(=O)(=O)c3ccccc3)CCc3ccccc3)cc2)O[C@@H]2O[C@@]3(C)CC[C@H]4[C@H](C)CC[C@@H]1[C@@]24OO3 |  | 3.94 | 9220 |  |  |  | 538 |  | 
C[C@@H]1CC[C@H]2[C@@H](C)C(=O)O[C@@H]3O[C@@]4(C)CC[C@@H]1[C@]32OO4 [ARTEMISININ] | 5.38 | 12 |  | 4.24 |  | 9.71 |  |  | 
C[C@H]1[C@@H](OCc2ccc(C(=O)N[C@@H](Cc3ccccc3)C(=O)N[C@H](/C=C/S(C)(=O)=O)CCc3ccccc3)cc2)O[C@@H]2O[C@@]3(C)CC[C@H]4[C@H](C)CC[C@@H]1[C@@]24OO3 | 2 | 4.81 | 21600 | 2.25 |  | 2.5 |  |  | 
CC(C)C[C@H](NC(=O)[C@H]1O[C@@H]1C(=O)O)C(=O)NCCCCN=C(N)N [E-64] |  |  | 84 |  |  |  | 9 |  | 
C[C@@H]1[C@H](OCc2ccc(C(=O)O)cc2)O[C@@H]2O[C@@]3(C)CC[C@@H]4[C@@H](C)CC[C@@H]1[C@]24OO3 (stereo in doubt) [ARTELINIC ACID] |  | 5.66 |  |  |  |  |  |  | 
C[C@H]1[C@@H](OCc2ccc(C(=O)N[C@@H](Cc3ccccc3)C(=O)N[C@H](/C=C/S(=O)(=O)c3ccccc3)Cc3ccccc3)cc2)O[C@@H]2O[C@@]3(C)CC[C@H]4[C@H](C)CC[C@@H]1[C@@]24OO3 |  | 2.27 | 22400 |  |  |  | 400 |  | 
CC(C)C[C@H](NC(=O)N1CCOCC1)C(=O)N[C@H](/C=C/S(=O)(=O)c1ccccc1)CCc1ccccc1 |  |  |  |  |  |  |  | 22 | 3

From ChEMBL document CHEMBL1782052, “Artemisinin-dipeptidyl vinyl sulfone hybrid molecules: design, synthesis and preliminary SAR for antiplasmodial activity and falcipain-2 inhibition” (Bioorg Med Chem Lett, 2009)
